# Experimental data taken from US20230085307A1, “PYRIDAZINONE COMPOUND AND HERBICIDE” (NISSAN CHEMICAL CORPORATION, priority 2019, published 2023).
# What was measured:
# barnyard grass [1] = assay: Test Example 3: herbicidal effect by foliage application, Wagner pot (Table 18, symbol H); type: in vivo, barnyard grass (Echinochloa crus-galli); settings: 320 g/ha
# In short: (§1)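 Plants were sown in alluvial soil held under 0.1–0.5 cm standing water and grown 14 days in a greenhouse at 25–30 °C. An emulsifiable formulation, water-diluted to the set dose, was then sprayed onto the foliage, and effects were scored three weeks later using previously defined criteria.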
# Chinese sprangletop = assay: Test Example 3: herbicidal effect by foliage application, Wagner pot (Table 18, symbol D); type: in vivo, chinese sprangletop (Leptochloa chinensis); settings: 320 g/ha
# In short: as §1
# rice flat sedge = assay: Test Example 3: herbicidal effect by foliage application, Wagner pot (Table 18, symbol E); type: in vivo, rice flat sedge (Cyperus iria); settings: 320 g/ha
# In short: as §1
# southern crabgrass [2] = assay: Test Example 4: herbicidal effect by soil treatment (Table 19, symbol F); type: in vivo, southern crabgrass (Digitaria ciliaris); settings: amount of applied herbicide 320 g/ha
# In short: (§2)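 In this soil treatment, the formulated compound reached the seeds only through the soil: seeds were buried about 1.5 cm deep in sterilized diluvial soil, then the diluted emulsion was sprayed over the surface. After three weeks at 25° C. to 30° C. in a greenhouse, effects were graded on criteria from an earlier test.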
# barnyard grass [3] = assay: Test Example 4: herbicidal effect by soil treatment (Table 19, symbol H); type: in vivo, barnyard grass (Echinochloa crus-galli); settings: amount of applied herbicide 320 g/ha
# In short: as §2
# wild oat [4] = assay: Test Example 4: herbicidal effect by soil treatment (Table 19, symbol I); type: in vivo, wild oat (Avena fatua); settings: amount of applied herbicide 320 g/ha
# In short: as §2
# blackgrass [5] = assay: Test Example 4: herbicidal effect by soil treatment (Table 19, symbol J); type: in vivo, blackgrass (Alopecurus myosuroides); settings: amount of applied herbicide 320 g/ha
# In short: as §2
# Italian ryegrass [6] = assay: Test Example 4: herbicidal effect by soil treatment (Table 19, symbol K); type: in vivo, Italian ryegrass (Lolium multiflorum); settings: amount of applied herbicide 320 g/ha
# In short: as §2
# windgrass [7] = assay: Test Example 4: herbicidal effect by soil treatment (Table 19, symbol L); type: in vivo, windgrass (Apera spica-venti); settings: amount of applied herbicide 320 g/ha
# In short: as §2
# velvetleaf [8] = assay: Test Example 4: herbicidal effect by soil treatment (Table 19, symbol M); type: in vivo, velvetleaf (Abutilon theophrasti); settings: amount of applied herbicide 320 g/ha
# In short: as §2
# redroot pigweed [9] = assay: Test Example 4: herbicidal effect by soil treatment (Table 19, symbol N); type: in vivo, redroot pigweed (Amaranthus retroflexus); settings: amount of applied herbicide 320 g/ha
# In short: as §2
# lambsquarters [10] = assay: Test Example 4: herbicidal effect by soil treatment (Table 19, symbol O); type: in vivo, lambsquarters (Chenopodium album); settings: amount of applied herbicide 320 g/ha
# In short: as §2
# chickweed [11] = assay: Test Example 4: herbicidal effect by soil treatment (Table 19, symbol P); type: in vivo, common chickweed (Stellaria media); settings: amount of applied herbicide 320 g/ha
# In short: as §2
# false cleavers [12] = assay: Test Example 4: herbicidal effect by soil treatment (Table 19, symbol Q); type: in vivo, false cleavers (Galium spurium); settings: amount of applied herbicide 320 g/ha
# In short: as §2
# persian speedwell [13] = assay: Test Example 4: herbicidal effect by soil treatment (Table 19, symbol R); type: in vivo, Persian speedwell (Veronica persica); settings: amount of applied herbicide 320 g/ha
# In short: as §2
# southern crabgrass [14] = assay: Test Example 5: herbicidal effect by foliage application, plastic box (Table 20, symbol F); type: in vivo, southern crabgrass (Digitaria ciliaris); settings: foliage application, 320 g/ha, three weeks after application
# In short: (§3)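 Plants were sown into sterilized diluvial soil under about 1.5 cm cover and kept in a greenhouse at 25° C. to 30° C. Fourteen days on, foliage received an even spray of the diluted emulsion. Herbicidal or crop effect was judged three weeks afterwards.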
# green foxtail = assay: Test Example 5: herbicidal effect by foliage application, plastic box (Table 20, symbol G); type: in vivo, green foxtail (Setaria viridis); settings: foliage application, 320 g/ha, three weeks after application
# In short: as §3
# barnyard grass [15] = assay: Test Example 5: herbicidal effect by foliage application, plastic box (Table 20, symbol H); type: in vivo, barnyard grass (Echinochloa crus-galli); settings: foliage application, 320 g/ha, three weeks after application
# In short: as §3
# wild oat [16] = assay: Test Example 5: herbicidal effect by foliage application, plastic box (Table 20, symbol I); type: in vivo, wild oat (Avena fatua); settings: foliage application, 320 g/ha, three weeks after application
# In short: as §3
# blackgrass [17] = assay: Test Example 5: herbicidal effect by foliage application, plastic box (Table 20, symbol J); type: in vivo, blackgrass (Alopecurus myosuroides); settings: foliage application, 320 g/ha, three weeks after application
# In short: as §3
# Italian ryegrass [18] = assay: Test Example 5: herbicidal effect by foliage application, plastic box (Table 20, symbol K); type: in vivo, Italian ryegrass (Lolium multiflorum); settings: foliage application, 320 g/ha, three weeks after application
# In short: as §3
# windgrass [19] = assay: Test Example 5: herbicidal effect by foliage application, plastic box (Table 20, symbol L); type: in vivo, windgrass (Apera spica-venti); settings: foliage application, 320 g/ha, three weeks after application
# In short: as §3
# velvetleaf [20] = assay: Test Example 5: herbicidal effect by foliage application, plastic box (Table 20, symbol M); type: in vivo, velvetleaf (Abutilon theophrasti); settings: foliage application, 320 g/ha, three weeks after application
# In short: as §3
# redroot pigweed [21] = assay: Test Example 5: herbicidal effect by foliage application, plastic box (Table 20, symbol N); type: in vivo, redroot pigweed (Amaranthus retroflexus); settings: foliage application, 320 g/ha, three weeks after application
# In short: as §3
# lambsquarters [22] = assay: Test Example 5: herbicidal effect by foliage application, plastic box (Table 20, symbol O); type: in vivo, lambsquarters (Chenopodium album); settings: foliage application, 320 g/ha, three weeks after application
# In short: as §3
# chickweed [23] = assay: Test Example 5: herbicidal effect by foliage application, plastic box (Table 20, symbol P); type: in vivo, common chickweed (Stellaria media); settings: foliage application, 320 g/ha, three weeks after application
# In short: as §3
# false cleavers [24] = assay: Test Example 5: herbicidal effect by foliage application, plastic box (Table 20, symbol Q); type: in vivo, false cleavers (Galium spurium); settings: foliage application, 320 g/ha, three weeks after application
# In short: as §3
# persian speedwell [25] = assay: Test Example 5: herbicidal effect by foliage application, plastic box (Table 20, symbol R); type: in vivo, Persian speedwell (Veronica persica); settings: foliage application, 320 g/ha, three weeks after application
# In short: as §3
compound,measurement,setting,value
CSc1ccc(-c2sc3ccccc3c2-c2c(O)c(C)nn(C)c2=O)cc1 [1-036],"herbicidal effect on H (barnyard grass), rating 0-5",barnyard grass [1],5 (Herbicidal rate of 90% or more (almost completely withered))
same,"herbicidal effect on D (Chinese sprangletop), rating 0-5",Chinese sprangletop,3 (Herbicidal rate of 40% or more and less than 70%)
same,"herbicidal effect on E (rice flat sedge), rating 0-5",rice flat sedge,5 (Herbicidal rate of 90% or more (almost completely withered))
same,"herbicidal effect rating, F: southern crabgrass",southern crabgrass [2],0 (Herbicidal rate of 5% or less (almost no effect))
same,"herbicidal effect rating, H: barnyard grass",barnyard grass [3],4 (Herbicidal rate of 70% or more and less than 90%)
same,"herbicidal effect rating, I: wild oat",wild oat [4],0 (Herbicidal rate of 5% or less (almost no effect))
same,"herbicidal effect rating, J: blackgrass",blackgrass [5],0 (Herbicidal rate of 5% or less (almost no effect))
same,"herbicidal effect rating, K: Italian ryegrass",Italian ryegrass [6],5 (Herbicidal rate of 90% or more (almost completely withered))
same,"herbicidal effect rating, L: windgrass",windgrass [7],0 (Herbicidal rate of 5% or less (almost no effect))
same,"herbicidal effect rating, M: velvetleaf",velvetleaf [8],2 (Herbicidal rate of 20% or more and less than 40%)
same,"herbicidal effect rating, N: redroot pigweed",redroot pigweed [9],5 (Herbicidal rate of 90% or more (almost completely withered))
same,"herbicidal effect rating, O: lambsquarters",lambsquarters [10],5 (Herbicidal rate of 90% or more (almost completely withered))
same,"herbicidal effect rating, P: chickweed",chickweed [11],5 (Herbicidal rate of 90% or more (almost completely withered))
same,"herbicidal effect rating, Q: false cleavers",false cleavers [12],0 (Herbicidal rate of 5% or less (almost no effect))
same,"herbicidal effect rating, R: persian speedwell",persian speedwell [13],5 (Herbicidal rate of 90% or more (almost completely withered))
same,"herbicidal effect grade, F: southern crabgrass",southern crabgrass [14],0 (Herbicidal rate of 5% or less (almost no effect))
same,"herbicidal effect grade, G: green foxtail",green foxtail,4 (Herbicidal rate of 70% or more and less than 90%)
same,"herbicidal effect grade, H: barnyard grass",barnyard grass [15],4 (Herbicidal rate of 70% or more and less than 90%)
same,"herbicidal effect grade, I: wild oat",wild oat [16],2 (Herbicidal rate of 20% or more and less than 40%)
same,"herbicidal effect grade, J: blackgrass",blackgrass [17],4 (Herbicidal rate of 70% or more and less than 90%)
same,"herbicidal effect grade, K: Italian ryegrass",Italian ryegrass [18],4 (Herbicidal rate of 70% or more and less than 90%)
same,"herbicidal effect grade, L: windgrass",windgrass [19],3 (Herbicidal rate of 40% or more and less than 70%)
same,"herbicidal effect grade, M: velvetleaf",velvetleaf [20],5 (Herbicidal rate of 90% or more (almost completely withered))
same,"herbicidal effect grade, N: redroot pigweed",redroot pigweed [21],5 (Herbicidal rate of 90% or more (almost completely withered))
same,"herbicidal effect grade, O: lambsquarters",lambsquarters [22],4 (Herbicidal rate of 70% or more and less than 90%)
same,"herbicidal effect grade, P: chickweed",chickweed [23],5 (Herbicidal rate of 90% or more (almost completely withered))
same,"herbicidal effect grade, Q: false cleavers",false cleavers [24],4 (Herbicidal rate of 70% or more and less than 90%)
same,"herbicidal effect grade, R: persian speedwell",persian speedwell [25],5 (Herbicidal rate of 90% or more (almost completely withered))
